Measured values published in US10821115B2, “Compounds that inhibit Mcl-1 protein” (priority 2017, dated 2020).
pIC50: −log10 of the molar value. Where two headings read alike, the source gives them in different places.

Experiments:
[1] = tested on: human multiple myeloma cell line, OPM-2; assay: Cell viability assay (OPM-2 10 FBS), CellTiter-Glo; assay type: cell-based
Method in brief: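 Serially diluted test compounds are incubated 16 h with cells (3000/well) in RPMI 1640 supplemented with 10% FBS. Viability is then measured by luminescence and IC50 calculated by 4-parameter logistic fit.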

[2] = molecular target: recombinant human Mcl-1 (residues 171-327) / Bim interaction (Homo sapiens (Human), UniProt Q07820); assay: biochemical; assay type: binding; settings: read-out: Mcl-1 HTRF IC50
Chain of recombinant human Mcl-1 (residues 171-327) / Bim interaction (Q07820 171-327): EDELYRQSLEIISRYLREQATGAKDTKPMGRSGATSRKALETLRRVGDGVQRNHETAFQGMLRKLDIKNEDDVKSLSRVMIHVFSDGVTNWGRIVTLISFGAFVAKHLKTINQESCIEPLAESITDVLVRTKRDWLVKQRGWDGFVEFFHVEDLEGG

[3] = read-out: OPM-2 10% FBS IC50 IP, OPM-2 cells, 10% FBS, 16 h, CellTiter-Glo
[4] = TR-FRET, Mcl-1(171-327) / biotin-Bim (51-76)
[5] = Homo sapiens, OPM-2, 16 h, read-out: OPM-2 10% FBS IC50 IP, OPM-2 cells, 10% FBS, 16 h, CellTiter-Glo
[6] = Homo sapiens, OPM-2, 16 h, read-out: OPM-2 10% FBS IC50 IP, OPM-2 cells, 10% FBS, 16 h incubation
[7] = 0.1 nM Mcl-1(171-327), 0.05 nM biotin-Bim (51-76)
[8] = read-out: OPM-2 10% FBS IC50 IP, OPM-2 cells, 10% FBS, 16 h incubation

Compound	pIC50 [1, 3]	pIC50 [2, 4]	pIC50 [2, 7]	further results
C[C@H](C(=O)O)[C@@]1(O)/C=C/C[C@H](C)[C@@H](C)S(=O)(=O)NC(=O)c2ccc3c(c2)N(C[C@@H]2CC[C@H]21)C[C@@]1(CCCc2cc(Cl)ccc21)CO3 (single isomer, unassigned) [Example 100120]	6.20	10.17	–	–
CO[C@]1(C2SCCCS2)/C=C/[C@H](C)[C@H](C)CS(=O)(=O)NC(=O)c2ccc3c(c2)N(C[C@@H]2CC[C@H]21)C[C@@]1(CCCc2cc(Cl)ccc21)CO3 [Example 100569, (1S,3′R,6′R,7′R,8′E,10′S,11′S)-6-chloro-7′-(1,3-dithian-2-yl)-7′-methoxy-10′,11′-dimethyl-3,4-dihydro-2H,15′H-spiro[naphthalene-1,22′-[20]oxa[13]thia[1,14]diazatetracyclo [14.7.2.0~3,6~.0~19,24~]pentacosa[8,16,18,24]tetraen]-15′-one 13′,13′-dioxide]	–	8.61	–	pIC50 [1, 5]: 5.70
CCCN1CCN(C[C@@]2(OCC)/C=C/C[C@H](C)[C@@H](C)S(=O)(=O)NC(=O)c3ccc4c(c3)N(C[C@@H]3CC[C@H]32)C[C@@]2(CCCc3cc(Cl)ccc32)CO4)CC1 [Example 98, (1S,3′R,6′R,7′R,8′E,11′S,12′R)-6-chloro-7′-ethoxy-11′,12′-dimethyl-7′-((4-propyl-1-piperazinyl)methyl)-3,4-dihydro-2H,15′H-spiro[naphthalene-1,22′-[20]oxa[13]thia[1,14]diazatetracyclo [14.7.2.0~3,6~.0~19,24~]pentacosa[8,16,18,24]tetraen]-15′-one 13′,13′-dioxide]	–	–	9.43	pIC50 [1, 6]: 6.74
CO[C@@]1(C2SCCCS2)CCC[C@H](C)[C@@H](C)S(=O)(=O)NC(=O)c2ccc3c(c2)N(C[C@@H]2CC[C@H]21)C[C@@]1(CCCc2cc(Cl)ccc21)CO3 [Example 100254, (1S,3′R,6′R,7′S,11′S,12′R)-6-chloro-7′-(1,3-dithian-2-yl)-7′-methoxy-11′,12′-dimethyl-3,4-dihydro-2H,15′H-spiro[naphthalene-1,22′-[20]oxa[13]thia[1,14]diazatetracyclo [14.7.2.0~3,6~.0~19,24~]pentacosa[16,18,24]trien]-15′-one 13′,13′-dioxide]	5.67	8.39	–	–
CCO[C@]1(CN2CCN3CCOC[C@@H]3C2)/C=C/C[C@H](C)[C@@H](COC)S(=O)(=O)NC(=O)c2ccc3c(c2)N(C[C@@H]2CC[C@H]21)C[C@@]1(CCCc2cc(Cl)ccc21)CO3 [Example 171, (1S,3′R,6′R,7′R,8′E,11′S,12′S)-6-chloro-7′-ethoxy-7′-((9aS)-hexahydropyrazino[2,1-c][1,4]oxazin-8(1H)-ylmethyl)-12′-(methoxymethyl)-11′-methyl-3,4-dihydro-2H,15′H-spiro[naphthalene-1,22′-[20]oxa[13]thia[1,14]diazatetracyclo [14.7.2.0~3,6~.0~19,24~]pentacosa[8,16,18,24]tetraen]-15′-one 13′,13′-dioxide]	–	–	10.13	pIC50 [1, 6]: 6.91
CO[C@@]1(C[C@@H](O)C(C)C)/C=C/C[C@H](C)[C@@H](C)S(=O)(=O)NC(=O)c2ccc3c(c2)N(C[C@@H]2CC[C@H]21)C[C@@]1(CCCc2cc(Cl)ccc21)CO3 (single isomer, unassigned) [Example 100366]	6.77	9.70	–	–
C[C@@H]1[C@@H](C)CCC[C@@](O)([C@@H]2OCCN(C)C2=O)[C@@H]2CC[C@H]2CN2C[C@@]3(CCCc4cc(Cl)ccc43)COc3ccc(cc32)C(=O)NS1(=O)=O [Example 100205, (1S,3′R,6′R,7′S,11′S,12′R)-6-chloro-7′-hydroxy-11′,12′-dimethyl-7′-((2S)-4-methyl-3-oxo-2-morpholinyl)-3,4-dihydro-2H,15′H-spiro[naphthalene-1,22′-[20]oxa[13]thia[1,14]diazatetracyclo [14.7.2.0~3,6~.0~19,24~]pentacosa[16,18,24]trien]-15′-one 13′,13′-dioxide]	–	9.69	–	pIC50 [1, 5]: 7.17
CO[C@@]1(c2cncc(CN(C)C)c2)/C=C/C[C@H](C)[C@@H](C)S(=O)(=O)NC(=O)c2ccc3c(c2)N(C[C@@H]2CC[C@H]21)C[C@@]1(CCCc2cc(Cl)ccc21)CO3 [Example 100554, (1S,3′R,6′R,7′S,8′E,11′S,12′R)-6-chloro-7′-(5-((dimethylamino)methyl)-3-pyridinyl)-7′-methoxy-11′,12′-dimethyl-3,4-dihydro-2H,15′H-spiro[naphthalene-1,22′-[20]oxa[13]thia[1,14]diazatetracyclo [14.7.2.0~3,6~.0~19,24~]pentacosa[8,16,18,24]tetraen]-15′-one 13′,13′-dioxide]	–	9.64	–	pIC50 [1, 5]: 6.28
C[C@@H]1[C@@H](C)CCC[C@@](O)(Cc2ccccn2)[C@@H]2CC[C@H]2CN2C[C@@]3(CCCc4cc(Cl)ccc43)COc3ccc(cc32)C(=O)NS1(=O)=O [Example 100105, (1S,3′R,6′R,7′R,11′S,12′R)-6-chloro-7′-hydroxy-11′,12′-dimethyl-7′-(2-pyridinylmethyl)-3,4-dihydro-2H,15′H-spiro[naphthalene-1,22′-[20]oxa[13]thia[1,14]diazatetracyclo [14.7.2.0~3,6~.0~19,24~]pentacosa[16,18,24]trien]-15′-one 13′,13′-dioxide]	5.44	8.23	–	–
C[C@@H]1[C@@H](C)C/C=C/[C@@](O)(C#CCCc2ccccn2)[C@@H]2CC[C@H]2CN2C[C@@]3(CCCc4cc(Cl)ccc43)COc3ccc(cc32)C(=O)NS1(=O)=O [Example 100440, (1S,3′R,6′R,7′S,8′E,11′S,12′R)-6-chloro-7′-hydroxy-11′,12′-dimethyl-7′-(4-(2-pyridinyl)-1-butyn-1-yl)-3,4-dihydro-2H,15′H-spiro[naphthalene-1,22′-[20]oxa[13]thia[1,14]diazatetracyclo [14.7.2.0~3,6~.0~19,24~]pentacosa[8,16,18,24]tetraen]-15′-one 13′,13′-dioxide]	6.45	9.40	–	–
CCCO[C@]1(CN2CCN3CCCC[C@@H]3C2)/C=C/C[C@H](C)[C@@H](C)S(=O)(=O)NC(=O)c2ccc3c(c2)N(C[C@@H]2CC[C@H]21)C[C@@]1(CCCc2cc(Cl)ccc21)CO3 [Example 353, (1S,3′R,6′R,7′R,8′E,11′S,12′R)-6-chloro-11′,12′-dimethyl-7′-((9aR)-octahydro-2H-pyrido[1,2-a]pyrazin-2-ylmethyl)-7′-propoxy-3,4-dihydro-2H,15′H-spiro[naphthalene-1,22′-[20]oxa[13]thia[1,14]diazatetracyclo [14.7.2.0~3,6~.0~19,24~]pentacosa[8,16,18,24]tetraen]-15′-one 13′,13′-dioxide]	–	–	9.87	pIC50 [1, 8]: 6.73
CC[C@@H]1CC/C=C/[C@](CN2CCN3CCOC[C@@H]3C2)(OC)[C@@H]2CC[C@H]2CN2C[C@@]3(CCCc4cc(Cl)ccc43)COc3ccc(cc32)C(=O)NS1(=O)=O [Example 28, (1S,3′R,6′R,7′S,8′E,12′R)-6-chloro-12′-ethyl-7′-((9aS)-hexahydropyrazino[2,1-c][1,4]oxazin-8(1H)-ylmethyl)-7′-methoxy-3,4-dihydro-2H,15′H-spiro[naphthalene-1,22′-[20]oxa[13]thia[1,14]diazatetracyclo [14.7.2.0~3,6~.0~19,24~]pentacosa[8,16,18,24]tetraen]-15′-one 13′,13′-dioxide]	–	–	10.09	pIC50 [1, 6]: 6.95
C[C@@H]1[C@@H](C)C/C=C/[C@](O)(c2cccnn2)[C@@H]2CC[C@H]2CN2C[C@@]3(CCCc4cc(Cl)ccc43)COc3ccc(cc32)C(=O)NS1(=O)=O [Example 100349, (1S,3′R,6′R,7′R,8′E,11′S,12′R)-6-chloro-7′-hydroxy-11′,12′-dimethyl-7′-(3-pyridazinyl)-3,4-dihydro-2H,15′H-spiro[naphthalene-1,22′-[20]oxa[13]thia[1,14]diazatetracyclo [14.7.2.0~3,6~.0~19,24~]pentacosa[8,16,18,24]tetraen]-15′-one 13′,13′-dioxide]	–	8.94	–	pIC50 [1, 5]: 7.24
C[C@@H]1[C@@H](C)CCC[C@@](O)(COS(C)(=O)=O)[C@@H]2CC[C@H]2CN2C[C@@]3(CCCc4cc(Cl)ccc43)COc3ccc(cc32)C(=O)NS1(=O)=O [Example 100271, ((1S,3′R,6′R,7′S,11′S,12′R)-6-chloro-7′-hydroxy-11′,12′-dimethyl-13′,13′-dioxido-15′-oxo-3,4-dihydro-2H-spiro[naphthalene-1,22′-[20]oxa[13]thia[1,14]diazatetracyclo [14.7.2.0~3,6~.0~19,24~]pentacosa[16,18,24]trien]-7′-yl)methyl methanesulfonate]	5.21	–	–	pIC50 [2]: 8.61
C[C@@H]1[C@@H](C)C/C=C/[C@@](O)(C#CCN(C)C)[C@@H]2CC[C@H]2CN2C[C@@]3(CCCc4cc(Cl)ccc43)COc3ccc(cc32)C(=O)NS1(=O)=O [Example 100295, (1S,3′R,6′R,7′S,8′E,11′S,12′R)-6-chloro-7′-(3-(dimethylamino)-1-propyn-1-yl)-7′-hydroxy-11′,12′-dimethyl-3,4-dihydro-2H,15′H-spiro[naphthalene-1,22′-[20]oxa[13]thia[1,14]diazatetracyclo [14.7.2.0~3,6~.0~19,24~]pentacosa[8,16,18,24]tetraen]-15′-one 13′,13′-dioxide]	6.52	9.55	–	–
CO[C@]1(CN2CCN3CCN(S(C)(=O)=O)C[C@@H]3C2)/C=C/C[C@H](C)[C@@H](C)S(=O)(=O)NC(=O)c2ccc3c(c2)N(C[C@@H]2CC[C@H]21)C[C@@]1(CCCc2cc(Cl)ccc21)CO3 (single isomer, unassigned) [Example 238]	–	–	9.75	pIC50 [1, 8]: 7.12
